# Laboratory results: patent US20030134901A1, “Lipoxin compounds and their use in treating cell proliferative disorders” (priority 1993, published 2003)
# Molecular target: T1, 15-PGDH (Homo sapiens, UniProt P15428)
# T1 construct: 100,000 g supernatants prepared from PMA-treated HL-60 cells converted 15-HETE to 15-oxo-ETE; endogenous in cells; host or cells: HL-60 cells treated with PMA (16 nM, 24-72 h); freeze-thaw lysate, 100,000 g supernatant
# T1 sequence (P15428 1-266): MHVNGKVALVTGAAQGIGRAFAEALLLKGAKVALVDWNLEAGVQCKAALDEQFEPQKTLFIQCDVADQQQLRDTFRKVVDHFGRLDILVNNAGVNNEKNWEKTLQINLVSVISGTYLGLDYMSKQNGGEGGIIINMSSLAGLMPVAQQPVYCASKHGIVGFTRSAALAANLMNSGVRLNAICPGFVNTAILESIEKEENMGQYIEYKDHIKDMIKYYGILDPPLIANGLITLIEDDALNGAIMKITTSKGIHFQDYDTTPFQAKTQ
# Experiment: 15-HETE to 15-oxo-ETE dehydrogenase activity of 100,000 g supernatants of PMA-treated HL-60 cells
# Assay type: biochemical
# Description: Human PMN were obtained from healthy volunteers by gradient centrifugation of heparinized fresh venous blood (Böyum, A. ([…]) Scand. J. Clin. Lab. Invest. 21:77). HL-60 cells were seeded in RPMI supplemented with penicillin (100 U/ml), streptomycin (100 μ/ml), fetal bovine serum (10%) (Hyclone, Logan, Utah) and incubated (37° C. with 5% CO2 atmosphere) in plastic 250 ml flasks. Individual flasks containing […] HL-60 cells/ml were incubated in the presence or absence of phorbol 12-myristate 13-acetate (PMA) (10 or 16 nM, 24-27 h) and adherence was monitored for induction of macrophage-like phenotype as in Collins, S. J. (1987) Blood 70:1233. […]
# Incubations with eicosanoids were stopped with cold methanol containing either PGB2 or 5-HETE as internal standards (5-HETE was used when 15-oxo-ETE was quantified). […] Formation of 15-oxo-ETE by 100,000 g supernatants (cf. Agins, A. P. et al. (1987) Agents Actions 21:397; Xun, C-Q. et al.(1991) Biochem. J. 279:553; and Sok, D-E. et al. (1988) Biochem. Biophys. Res. Commun. 156:524) was quantified after RP-HPLC using an ODS column (4.6 mm×25 cm) eluted with methanol/H2O/acetic acid (70:30:0.01, v/v/v) monitored at 280 nm with a flow rate of 1 ml/min. […] On-line spectra were recorded using a diode array detector (Hewlett-Packard 1040M series II) equipped with HPLC^3D ChemStation software (DOS series). […]
compound,measurement,setting,value
"CCCCC[C@H](O)/C=C/C=C\C=C\C=C\[C@@H](O)[C@@H](O)CCCC(=O)O [LXA4, (5S, 6R, 15S)-trihydroxy-7E, 9E, 11Z, 13E-eicosatetraenoic acid]",Ki,"Lineweaver-Burke plots, S.E.M., n=6, read-out: Ki, competition for catalysis of 15-HETE",8.2 ± 2.6 µM
same,block of 15-oxo-ETE formation,equimolar concentrations of LXA4 and 15-HETE,≈ 50%
